In patent US12552748B2, “Pyridine (thio)amides as fungicidal compounds” (Bayer Aktiengesellschaft, priority 2020, dated 2026):
Marks after values point to notes of the source that are not given here.

Assay: physchem
Type: physicochemical
Procedure: Measurement of Log P values as provided herein was performed according to EEC directive 79/831 Annex V.A8 by HPLC (High Performance Liquid Chromatography) on reversed phase columns with the following methods: […] If more than one Log P value is available within the same method, all the values are given and separated by “+”. Calibration was done with straight-chain alkan2-ones (with 3 to 16 carbon atoms) with known Log P values (measurement of Log P values using retention times with linear interpolation between successive alkanones). Lambda-max-values were determined using UV-spectra from 200 nm to 400 nm and the peak values of the chromatographic signals

Structure (SMILES) | LogP | chromatographic logP
CON=C(C)c1cc(C(=O)NCCc2ccc(C)cc2C)c(Oc2cccc(C(F)(F)F)c2)cn1 (mixture of isomers) [Compound I-251] | 5.36^[a] | –
O=C(NCC(F)c1ccc(Cl)cc1Cl)c1cc(Cl)ncc1Oc1cccc(Cl)c1 (racemic) [Compound I-035] | 4.80^[a] | –
O=C(NCC(F)c1ccc(Cl)cc1Cl)c1cc(Cl)ncc1Oc1cccc(C(F)F)c1 (racemic) [Compound I-037] | 4.40^[a] | –
COc1cccc(Oc2cnc(Cl)cc2C(=O)NCC(F)c2ccc(Cl)cc2Cl)c1 (racemic) [Compound I-041] | 4.51^[a] | –
Cc1cccc(Oc2cnc(Cl)cc2C(=O)NCC(F)c2ccc(Cl)cc2Cl)c1 (racemic) [Compound I-043] | 4.92^[a] | –
Cc1cc(C(=O)NCC(F)c2ccc(Cl)cc2Cl)c(Oc2cccc(Cl)c2)cn1 (racemic) [Compound I-053] | 4.12^[a] | –
Cc1ccc(C(F)CNC(=O)c2cc(C)ncc2Oc2cccc(Cl)c2)c(Cl)c1 (racemic) [Compound I-054] | 3.98^[a] | –
Cc1cc(C(=O)NCC(F)c2ccc(Cl)cc2Cl)c(Oc2cccc(C(F)F)c2)cn1 (racemic) [Compound I-055] | 3.78^[a] | –
Cc1cccc(Oc2cnc(C)cc2C(=O)NCC(F)c2ccc(C)cc2Cl)c1 (racemic) [Compound I-056] | 3.96^[a] | –
O=C(NCC(F)c1ccc(Cl)cc1Cl)c1cc(Cl)ncc1Oc1cccc(C2CC2)c1F (racemic) [Compound I-060] | 5.17^[a] | –
O=C(NCC(F)c1ccc(Cl)cc1Cl)c1cc(Cl)ncc1Oc1cccc(C2CC2)c1 (racemic) [Compound I-063] | 4.92^[a] | –
Cc1ccc(C(F)CNC(=O)c2cc(C)ncc2Oc2cccc(C3CC3)c2)c(Cl)c1 (racemic) [Compound I-073] | 4.30^[a] | –
O=C(NCC(F)c1ccc(Cl)cc1Cl)c1cc(C2CC2)ncc1Oc1cccc(C2CC2)c1F (racemic) [Compound I-074] | 5.32^[a] | –
Cc1ccc(C(F)CNC(=O)c2cc(C)ncc2Oc2cccc(C3CC3)c2F)c(Cl)c1 (racemic) [Compound I-076] | 4.49^[a] | –
Cc1cc(C(=O)NCC(F)c2ccc(Cl)cc2Cl)c(Oc2cccc(C3CC3)c2F)cn1 (racemic) [Compound I-078] | 4.49^[a] | –
Cc1ccc(C(F)CNC(=O)c2cc(Cl)ncc2Oc2cccc(C(F)(F)F)c2)cc1C (racemic) [Compound I-079] | 4.70^[a] | –
Cc1cc(C(F)F)ccc1C(F)CNC(=O)c1cc(Cl)ncc1Oc1cccc(C(F)(F)F)c1 (racemic) [Compound I-080] | 4.40^[a] | –
COc1cc(C(F)CNC(=O)c2cc(Cl)ncc2Oc2cccc(C(F)(F)F)c2)ccc1Cl (racemic) [Compound I-081] | 4.37^[a] | –
O=C(NCC(F)c1ccc(Cl)c(Cl)c1)c1cc(Cl)ncc1Oc1cccc(C(F)(F)F)c1 (racemic) [Compound I-082] | 4.81^[a] | –
Cc1ccc(C(F)CNC(=O)c2cc(Cl)ncc2Oc2cccc(C(F)(F)F)c2)c(Cl)c1 (racemic) [Compound I-083] | 4.78^[a] | –
Cc1cc(Cl)ccc1C(F)CNC(=O)c1cc(Cl)ncc1Oc1cccc(C(F)(F)F)c1 (racemic) [Compound I-084] | 4.81^[a] | –
O=C(NCC(F)c1ccc(C2CC2)cc1Cl)c1cc(Cl)ncc1Oc1cccc(C(F)(F)F)c1 (racemic) [Compound I-085] | 5.08^[a] | –

Structure (SMILES) | LogP | chromatographic logP
Cc1cc(Br)ccc1C(F)CNC(=O)c1cc(Cl)ncc1Oc1cccc(C(F)(F)F)c1 (racemic) [Compound I-086] | 4.93^[a] | –
O=C(NCC(F)c1ccc(Cl)cc1Cl)c1cc(Cl)nc(F)c1Oc1cccc(C(F)(F)F)c1 (racemic) [Compound I-091] | 5.08^[a] | –
Cc1cccc(Oc2cnc(C)cc2C(=O)NCC(F)c2ccc(Cl)cc2Cl)c1 (racemic) [Compound I-161] | 4.13^[a] | –
C[Si](C)(C)C#Cc1cc(C(=O)NCC(F)c2ccc(Cl)cc2Cl)c(Oc2cccc(C(F)(F)F)c2)cn1 (racemic) [Compound I-176] | 6.01^[a] | –
C#Cc1cc(C(=O)NCC(F)c2ccc(Cl)cc2Cl)c(Oc2cccc(C(F)(F)F)c2)cn1 (racemic) [Compound I-189] | 4.41^[a] | –
CCc1cc(C(=O)NCC(F)c2ccc(Cl)cc2Cl)c(Oc2cccc(C3CC3)c2)cn1 (racemic) [Compound I-190] | 4.92^[a] | –
O=C(NCC(F)c1ccc(Cl)cc1Cl)c1cc(-c2ccncc2Cl)ncc1Oc1cccc(C(F)(F)F)c1 (racemic) [Compound I-195] | 4.68^[a] | –
Cc1ccc(C(F)CNC(=O)c2cc(C)ncc2Oc2cccc(C(F)(F)F)c2)c(Cl)c1 (racemic) [Compound I-263] | 4.08^[a] | –
Cc1ccc(CCNC(=O)c2cc(Cl)ncc2Oc2cccc(C3CC3F)c2)c(C)c1 (single isomer, unassigned) [Compound I-265] | 4.70^[a] | –
O=C(O)c1cc(Cl)ncc1Oc1cccc(C(F)(F)F)c1 [Compound 1-001] | 2.84^[a] | –
C#Cc1cc(C(=O)O)c(Oc2cccc(C(F)(F)F)c2)cn1 [Compound 1-002] | 2.39^[a] | –
C#Cc1cc(C(=O)OC)c(Oc2cccc(C(F)(F)F)c2)cn1 [Compound 1-003] | 3.46^[a] | –
COC(=O)c1cc(C#C[Si](C)(C)C)ncc1Oc1cccc(C(F)(F)F)c1 [Compound 1-004] | 5.35^[a] | –
O=C(O)c1cc(Cl)ncc1Oc1cccc(Cl)c1 [Compound 1-005] | 2.76^[a] | –
O=C(O)c1cc(Cl)ncc1Oc1cccc(C(F)F)c1 [Compound 1-006] | 2.48^[a] | –
COc1cccc(Oc2cnc(Cl)cc2C(=O)O)c1 [Compound 1-007] | 2.34^[a] | –
Cc1cccc(Oc2cnc(Cl)cc2C(=O)O)c1 [Compound 1-008] | 2.60^[a] | –
O=C(O)c1cc(Cl)ncc1Oc1cccc(C2CC2)c1F [Compound 1-009] | 2.97^[a] | –
O=C(O)c1cc(Cl)ncc1Oc1cccc(C2CC2)c1 [Compound 1-010] | 2.87^[a] | –
CC(=O)c1cc(C(=O)O)c(Oc2cccc(C(F)(F)F)c2)cn1 [Compound 1-011, 2-acetyl-5-[3-(trifluoromethyl)phenoxy]pyridine-4-carboxylic acid] | – | 2.54
COC(=O)c1cc(C(C)=O)ncc1Oc1cccc(C(F)(F)F)c1 [Compound 1-012, methyl 2-acetyl-5-[3-(trifluoromethyl)phenoxy]pyridine-4-carboxylate] | – | 3.59
C=C(OCC)c1cc(C(=O)OC)c(Oc2cccc(C(F)(F)F)c2)cn1 [Compound 1-013, methyl 2-(1-ethoxyvinyl)-5-[3-(trifluoromethyl)phenoxy]pyridine-4-carboxylate] | – | 4.7

Structure (SMILES) | LogP | chromatographic logP
O=C(O)c1cc(Cl)nc(F)c1Oc1cccc(C(F)(F)F)c1 [Compound 1-014, 6-chloro-2-fluoro-3-[3-(trifluoromethyl)phenoxy]pyridine-4-carboxylic acid] | – | 2.95
N#Cc1nc(Cl)cc(C(=O)O)c1Oc1cccc(C(F)(F)F)c1 [Compound 1-016] | 2.40^[a] | –
COc1cc(C(=O)O)c(Oc2cccc(C(F)(F)F)c2)cn1 [Compound 1-017] | 2.86^[a] | –
COc1cc(C(=O)NCCc2ccc(C)cc2C)c(Oc2cccc(C(F)(F)F)c2)cn1 [Compound 1-160] | 4.69^[a] | –
Cc1ccc(CCNC(=O)c2cc(Cl)ncc2Br)c(C)c1 [Compound 3-001, 5-bromo-2-chloro-N-[2-(2,4-dimethylphenyl)ethyl]pyridine-4-carboxamide] | – | 3.4
Cc1ccc(CCNC(=O)c2cc(C(F)(F)F)ncc2Br)c(C)c1 [Compound 3-002] | 3.77^[a] | –
Cc1ccc(C(F)(F)CNC(=O)c2cc(Cl)ncc2Br)c(C)c1 [Compound 3-003] | 3.57^[a] | –
O=C(NCC(F)(F)c1ccc(Br)cc1Cl)c1cc(Cl)ncc1Br [Compound 3-004] | 3.68^[a] | –
Cc1ccc(C(F)(F)CNC(=O)c2c(Br)cnc(Cl)c2F)c(C)c1 [Compound 3-005, 5-bromo-2-chloro-N-[2-(2,4-dimethylphenyl)-2,2-difluoro-ethyl]-3-fluoro-pyridine-4-carboxamide] | – | 3.81
Cc1ccc(C(F)(F)CNC(=O)c2c(Br)cnc(Cl)c2Cl)c(C)c1 [Compound 3-006] | 3.98^[a] | –
COc1c(Cl)ncc(Br)c1C(=O)NCC(F)(F)c1ccc(C)cc1C [Compound 3-007] | 3.75^[a] | –
O=C(NCC(F)(F)c1ccc(Br)cc1Cl)c1cc(Cl)ncc1Oc1cccc(C(F)(F)F)c1 [Compound I-001] | 5.00^[a] | –
Cc1ccc(CCNC(=O)c2cc(Cl)ncc2Oc2cccc(C(F)(F)F)c2)c(C)c1 [Compound I-002] | 4.73^[a] | –
COc1cc(C(=O)NCC(F)(F)c2ccc(Br)cc2Cl)c(Oc2cccc(C(F)(F)F)c2)cn1 [Compound I-003] | 4.95^[a] | –
COc1cc(C(=O)NCC(F)(F)c2ccc(C)cc2C)c(Oc2cccc(C(F)(F)F)c2)cn1 [Compound I-004] | 4.77^[a] | –
Cc1ccc(C(F)(F)CNC(=O)c2cc(Cl)ncc2Oc2cccc(C(F)(F)F)c2)c(C)c1 [Compound I-005] | 4.77^[a] | –
COc1ccc(CCNC(=O)c2cc(Cl)ncc2Oc2cccc(C(F)(F)F)c2)c(OC)c1 [Compound I-008] | 4.06^[a] | –
O=C(NCC(F)(F)c1ccc(Cl)cc1Cl)c1cc(Cl)ncc1Oc1cccc(C(F)(F)F)c1 [Compound I-009] | 4.82^[a] | –
O=C(NCC(F)c1ccc(Cl)cc1Cl)c1cc(Cl)ncc1Oc1cccc(C(F)(F)F)c1 (stereo not drawn) [Compound I-010] | 4.74^[a] | –
O=C(NCC(F)(F)c1ccc(Cl)cc1)c1cc(Cl)ncc1Oc1cccc(C(F)(F)F)c1 [Compound I-011] | 4.41^[a] | –
O=C(NCC(F)c1ccc(Br)cc1Cl)c1cc(Cl)ncc1Oc1cccc(C(F)(F)F)c1 (stereo not drawn) [Compound I-012] | 4.85^[a] | –
CC(=O)c1cccc(Oc2cnc(Cl)cc2C(=O)NCCc2ccc(C)cc2C)c1 [Compound I-014] | 3.87^[a] | –
